From ChEMBL document CHEMBL1201862, “PubChem BioAssay data set” (2004)
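Each compound was tested at five concentrations against cells in 96-well plates for 48 hours. GI50 is the concentration that inhibits growth by half.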 Active and inactive are the calls of the source. Rule as the data show it: active = GI50 up to about 1.1 µM and inactive = higher. Residues, ends and D or L forms follow the SMILES beside them. *: point of attachment. Boc = CC(C)(C)OC(=O)*; Bz = O=C(c1ccccc1)*

Experiments:
Experiment in all cases: DTP human tumour cell line panel, 48 h
HOP-62 = system: HOP-62
SN12C = system: SN12C
Malme-3M = system: Malme-3M
UO-31 = system: UO-31
SK-MEL-28 = system: SK-MEL-28
SF-539 = system: SF-539
CCRF-CEM = system: CCRF-CEM
DU-145 = system: DU-145
OVCAR-4 = system: OVCAR-4
K562 = system: K562
ACHN = system: ACHN
MDA-MB-231 = system: MDA-MB-231
SNB-75 = system: SNB-75
Hs-578T = system: Hs-578T
RXF 393 = system: RXF 393
SK-MEL-5 = system: SK-MEL-5
NCI-H522 = system: NCI-H522
HOP-92 = system: HOP-92
SR = system: SR
LOX IMVI = system: LOX IMVI

Measured: GI50

Cc1n[nH]c(=O)n1/N=C/c1cccc(Cl)c1
inactive: HOP-62 49.3 µM | SN12C > 100 µM | Malme-3M > 100 µM | UO-31 > 100 µM | SK-MEL-28 > 100 µM | SF-539 89.5 µM | CCRF-CEM > 100 µM | DU-145 35.6 µM | OVCAR-4 76.9 µM | K562 > 100 µM | ACHN > 100 µM | MDA-MB-231 > 100 µM | SNB-75 61.5 µM | Hs-578T 17.7 µM | RXF 393 20.2 µM

Cc1c2c(OCC(O)CN3CCN(c4ccccc4)CC3)nn(C)c(=O)c2c(C)n1-c1ccccc1 (stereo unspecified)
inactive: HOP-62 39.6 µM | SN12C 18.5 µM | Malme-3M 21.8 µM | UO-31 18.9 µM | SK-MEL-28 18.4 µM | SK-MEL-5 16.6 µM | NCI-H522 20.6 µM | SF-539 19.2 µM | CCRF-CEM 31.2 µM | DU-145 37.9 µM | OVCAR-4 30.3 µM | HOP-92 44.4 µM | K562 27 µM | ACHN 20.6 µM | MDA-MB-231 25.6 µM | SNB-75 19.8 µM | Hs-578T 24.4 µM | RXF 393 26.9 µM

CC(C)C1OC(=O)C=C1Sc1ccccc1 (stereo unspecified)
inactive: HOP-62 > 100 µM | SN12C > 100 µM | Malme-3M 80.7 µM | SR > 100 µM | SK-MEL-28 > 100 µM | SK-MEL-5 > 100 µM | NCI-H522 > 100 µM | SF-539 > 100 µM | CCRF-CEM > 100 µM | DU-145 > 100 µM | OVCAR-4 > 100 µM | LOX IMVI > 100 µM | K562 > 100 µM | ACHN > 100 µM | MDA-MB-231 > 100 µM | SNB-75 > 100 µM | Hs-578T > 100 µM | RXF 393 > 100 µM

CN1CCC/C1=N\C#N
inactive: HOP-62 > 100 µM | SN12C > 100 µM | Malme-3M > 100 µM | UO-31 > 100 µM | SR > 100 µM | SK-MEL-28 > 100 µM | SK-MEL-5 > 100 µM | NCI-H522 > 100 µM | SF-539 > 100 µM | CCRF-CEM > 100 µM | DU-145 > 100 µM | OVCAR-4 > 100 µM | LOX IMVI > 100 µM | K562 > 100 µM | ACHN > 100 µM | MDA-MB-231 > 100 µM | SNB-75 > 100 µM | Hs-578T > 100 µM | RXF 393 > 100 µM

COc1cc([C@@H]2OC[C@@H]3C(c4cc(OC)c5c(c4)OCO5)OC[C@@H]32)cc(OC)c1OC (stereo partly specified)
inactive: HOP-62 > 100 µM | UO-31 > 100 µM | SR 89.1 µM | SK-MEL-28 > 100 µM | SK-MEL-5 26.9 µM | NCI-H522 96.8 µM | SF-539 > 100 µM | CCRF-CEM 52.4 µM | DU-145 > 100 µM | OVCAR-4 92.5 µM | HOP-92 > 100 µM | LOX IMVI > 100 µM | K562 > 100 µM | ACHN > 100 µM | MDA-MB-231 > 100 µM | SNB-75 > 100 µM | Hs-578T > 100 µM

CC1=CC(=O)C(=C(C)C)CC1
inactive: HOP-62 > 100 µM | SN12C > 100 µM | Malme-3M > 100 µM | UO-31 > 100 µM | SR 48 µM | SK-MEL-28 > 100 µM | SK-MEL-5 > 100 µM | NCI-H522 > 100 µM | CCRF-CEM 28.9 µM | DU-145 > 100 µM | OVCAR-4 > 100 µM | LOX IMVI > 100 µM | K562 > 100 µM | ACHN > 100 µM | MDA-MB-231 > 100 µM | SNB-75 > 100 µM | Hs-578T > 100 µM | RXF 393 26.1 µM

CC(NC(=O)C(Cc1ccc(OC(=O)c2ccccc2)cc1)NC(=O)OC(C)(C)C)C(=O)NC(Cc1ccccc1)C(=O)NCC(N)=O (stereo unspecified) (Boc-Y(Bz)AFG-NH2; configuration not given here)
inactive: HOP-62 14.9 µM | SN12C 21.1 µM | Malme-3M 20.8 µM | UO-31 18.8 µM | SK-MEL-28 28.7 µM | SK-MEL-5 26.3 µM | NCI-H522 17.9 µM | SF-539 24.9 µM | CCRF-CEM 77.8 µM | DU-145 20.4 µM | OVCAR-4 20.9 µM | HOP-92 23.6 µM | LOX IMVI 22 µM | K562 25.8 µM | ACHN 23 µM | MDA-MB-231 19.4 µM | SNB-75 22.8 µM | Hs-578T 20.3 µM | RXF 393 20.9 µM

O=C1O/C(=C\C=C\CO)C=C1/C=C/CO [LISSOCLINOLIDE]
inactive: SN12C 27.9 µM | Malme-3M 13.8 µM | UO-31 16.5 µM | SR 34.9 µM | SK-MEL-28 24.4 µM | SK-MEL-5 22.1 µM | NCI-H522 10.3 µM | SF-539 24.1 µM | CCRF-CEM 22.9 µM | DU-145 21 µM | OVCAR-4 45.5 µM | LOX IMVI 35.6 µM | K562 31.2 µM | ACHN 24.2 µM | MDA-MB-231 21.3 µM | SNB-75 > 100 µM | RXF 393 19 µM
